Tested on: normal human lung fibroblasts, human bronchial epithelial cells, and human pulmonary alveolar epithelial cells
Experiment: Secreted protein expression after LPA induction, aptamer-based proteomic platform (SomaLogic, 1129 proteins)
Format: cell-based
Details: 24 hours
Description: Changes in gene expression after 3 hours of LPA induction were profiled on Affymetrix Human Gene ST 2.0 microarrays; differentially expressed genes identified by ANOVA with FDR <0.05 and fold-change >1.2. Process networks associated with differentially expressed genes were defined using MetaCore. Changes in secreted protein expression after 24 hours of LPA induction were profiled on an aptamer-based proteomic platform (1129 proteins); differentially expressed proteins identified by t-test.
Treatment of cells with LPA, isolation supernatant, analysis of secreted protein expression using soma panel was performed as follows: Supernatant was collected from in vitro cultures of normal human lung fibroblasts, human bronchial epithelial cells, and human pulmonary alveolar epithelial cells treated for 24 hours with LPA and/or LPAR1 inhibitor. Each treatment condition was assayed in triplicate. 1129 proteins were profiled using a broad aptamer-based proteomic platform (SomaLogic, Colo., US). Briefly, the technology uses DNA aptamers containing chemically modified nucleotides as highly specific protein binding reagents in a multiplexed assay that transforms the quantity of each targeted protein into a corresponding quantify of the aptamer. Protein quantities are then detected on a microarray platform and recorded as Relative Fluorescence Units (RFU).
In Tables 1-5 The differentially expressed secreted proteins set forth in Tables 1, 2, and 5 and the differentially expressed mRNAs set forth in Table 3 and 4 were identified by visual inspection of individual dot-plots.
For the gene and protein expression analysis primary fibroblasts (NHLF product #CC-2512 from Lonza group LTD) and primary epithelial cells (NHBE Product #CC-2540 from Lonza; HPAEpiC Product #3200 from Sciencell (USA, California)) were cultured as recommended by the manufacturer, except they were cultured on collagen coated plates. As part of the induction protocol cells were starved overnight in low (0.2 or 0.1% serum) or no serum (0%), prior to stimulation with LPA.

Substance: lysophosphatidic acid [LPA]
- effect of LPA, IL-8 (IL8): up
- effect of LPA, IL-11 (IL11): up
- effect of LPA, IL-12 RB2 (IL12RB2): up
- effect of LPA, IL-17D (IL17D): up
- effect of LPA, IP-10 (CXCL10): up
- effect of LPA, JAG1 (JAG1): up
- effect of LPA, JAG2 (JAG2): up
- effect of LPA, KPCI (PRKCI): up
- effect of LPA, LG3BP (LGALS3BP): up
- effect of LPA, LGMN (LGMN): up
- effect of LPA, LRIG3 (LRIG3): up
- effect of LPA, Layilin (LAYN): up
- effect of LPA, MCP-1 (CCL2): up
- effect of LPA, MCP-3 (CCL7): up
- effect of LPA, MICA (MICA): up
- effect of LPA, MICB (MICB): up
- effect of LPA, MIP-3a (CCL20): up
- effect of LPA, MMP-1 (MMP1): up
- effect of LPA, MMP-3 (MMP3): up
- effect of LPA, MMP-9 (MMP9): up
- effect of LPA, MMP-10 (MMP10): up
- effect of LPA, MMP-12 (MMP12): up
- effect of LPA, MMP-13 (MMP13): up
- effect of LPA, MRC2 (MRC2): up
- effect of LPA, Met (MET): up
- effect of LPA, Midkine (MDK): up
- effect of LPA, NAGK (NAGK): up
- effect of LPA, NAP-2 (PPBP): up
- effect of LPA, NCAM-L1 (L1CAM): up
- effect of LPA, NET4 (NTN4): up
- effect of LPA, NID2 (NID2): up
- effect of LPA, NKp46 (NCR1): up
- effect of LPA, NRP1 (NRP1): up
- effect of LPA, NRX3B (NRXN3): up
- effect of LPA, NXPH1 (NXPH1): up
- effect of LPA, Neurotrophin-3 (NTF3): up
- effect of LPA, Nogo Receptor (RTN4R): up
- effect of LPA, NovH (NOV): up
- effect of LPA, OMD (OMD): up
- effect of LPA, ON (SPARC): up
- effect of LPA, PAI-1 (SERPINE1): up
- effect of LPA, PARK7 (PARK7): up
- effect of LPA, PCSK7 (PCSK7): up
- effect of LPA, PDGF-AA (PDGFA): up
- effect of LPA, PDGF-BB (PDGFB): up
- effect of LPA, PTHrP (PTHLH): up
- effect of LPA, Protease nexin I (SERPINE2): up
- effect of LPA, RAC1 (RAC1): up
- effect of LPA, RANTES (CCL5): up
- effect of LPA, RAP (LRPAP1): up
- effect of LPA, RGMB (RGMB): up
- effect of LPA, ROBO2 (ROBO2): up
- effect of LPA, SARP-2 (SFRP1): up
- effect of LPA, SCGF-alpha (CLEC11A): up
- effect of LPA, SDF-1 (CXCL12): up
- effect of LPA, SLIK5 (SLITRK5): up
- effect of LPA, ST4S6 (CHST15): up
- effect of LPA, Semaphorin 3A (SEMA3A): up
- effect of LPA, Sphingosine kinase 1 (SPHK1): up
- effect of LPA, Spondin-1 (SPON1): down
- effect of LPA, TAJ (TNFRSF19): up
- effect of LPA, TFPI (TFPI): up
- effect of LPA, TGF-b R III (TGFBR3): up
- effect of LPA, TIG2 (RARRES2): up
- effect of LPA, TIMP-3 (TIMP3): up
- effect of LPA, TNF sR-I (TNFRSF1A): up
- effect of LPA, TNF sR-II (TNFRSF1B): up
- effect of LPA, TNFSF15 (TNFSF15): up
- effect of LPA, TSG-6 (TNFAIP6): up
- effect of LPA, TSLP (TSLP): up
- effect of LPA, TSP2 (THBS2): up
- effect of LPA, TWEAK (TNFSF12): down
- effect of LPA, TXD12 (TXNDC12): up
- effect of LPA, Thrombospondin-1 (THBS1): up
- effect of LPA, TrATPase (ACP5): down
- effect of LPA, UNC5H3 (UNC5C): up
- effect of LPA, URB (CCDC80): up
- effect of LPA, VEGF121 (VEGFA): up
- effect of LPA, VEGF (VEGFA): up
- effect of LPA, VEGF-C (VEGFC): up
- effect of LPA, WKFN1 (GPRASP2): down
- effect of LPA, annexin I (ANXA1): up
- effect of LPA, discoidin domain receptor 1 (DDR1): up
- effect of LPA, eIF-5A-1 (EIF5A): down
- effect of LPA, sFRP-3 (FRZB): down
- effect of LPA, suPAR (PLAUR): up
- effect of LPA, uPA (PLAU): up
